Like-named read-outs stand apart in the source and are kept apart here.
What was measured:
[1] = molecular target: T1, HCV NS5B polymerase 1a-H77 (Hepatitis C virus genotype 1a, UniProt P27958); test: biochemical; design: species or system HCV genotype 1a; details: enzyme, strain 1a H77; read-out: HCV Polymerase Strain 1a H77 IC50
T1 construct: six-histidine tag; made in house; host or cells: E. coli
In short: (§1)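 Recombinant NS5B (residues 1–570, His-tagged, E. coli-expressed) copied 5 nM of a 2.1 kb HCV 1b negative-strand 3′-end RNA template with 20 μM CTP, 20 μM ATP and 0.284 μM [3H]UTP for 3 h at 30 °C. Spermine-precipitated RNA was filter-captured and counted, and IC50 was fitted by nonlinear regression.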

[2] = molecular target: T2, HCV NS5B polymerase 1a-H77-C316Y (Hepatitis C virus genotype 1a, UniProt P27958, C2736Y); test: biochemical; design: species or system HCV genotype 1a
T2 construct: six-histidine tag; made in house; host or cells: E. coli
T2 sequence (P27958 2421-2990 C2736Y): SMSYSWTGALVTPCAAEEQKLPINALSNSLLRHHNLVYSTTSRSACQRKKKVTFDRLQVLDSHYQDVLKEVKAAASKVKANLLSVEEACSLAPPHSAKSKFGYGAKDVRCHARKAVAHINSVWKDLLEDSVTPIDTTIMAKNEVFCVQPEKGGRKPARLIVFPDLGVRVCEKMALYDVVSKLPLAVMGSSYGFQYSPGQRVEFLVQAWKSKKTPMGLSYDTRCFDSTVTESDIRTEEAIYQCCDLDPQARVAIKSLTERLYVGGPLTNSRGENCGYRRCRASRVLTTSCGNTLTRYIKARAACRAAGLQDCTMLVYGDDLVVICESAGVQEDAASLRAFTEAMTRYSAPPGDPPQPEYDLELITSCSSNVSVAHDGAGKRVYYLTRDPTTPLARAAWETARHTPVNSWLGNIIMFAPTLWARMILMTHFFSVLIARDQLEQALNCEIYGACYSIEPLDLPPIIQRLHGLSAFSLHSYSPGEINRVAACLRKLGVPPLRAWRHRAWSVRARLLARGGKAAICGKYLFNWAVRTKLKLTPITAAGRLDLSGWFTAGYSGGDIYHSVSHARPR
In short: as §1

[3] = system: HCV NS5B polymerase 1a-H77-C316Y; test: biochemical; design: species or system HCV genotype 1a; details: ratio of enzyme IC50s, 1a H77-C316Y / 1a H77
In short: as §1

[4] = molecular target: T3, HCV NS5B polymerase 1b BK strain (Hepatitis C virus genotype 1b, UniProt P26663); test: HCV NS5B polymerase enzymatic inhibition assay, strain 1b BK; type: biochemical; details: enzyme, strain 1b BK; read-out: HCV Polymerase Strain 1b BK IC50
T3 construct: six-histidine tag; made in house; host or cells: E. coli
T3 sequence (P26663 2420-2989): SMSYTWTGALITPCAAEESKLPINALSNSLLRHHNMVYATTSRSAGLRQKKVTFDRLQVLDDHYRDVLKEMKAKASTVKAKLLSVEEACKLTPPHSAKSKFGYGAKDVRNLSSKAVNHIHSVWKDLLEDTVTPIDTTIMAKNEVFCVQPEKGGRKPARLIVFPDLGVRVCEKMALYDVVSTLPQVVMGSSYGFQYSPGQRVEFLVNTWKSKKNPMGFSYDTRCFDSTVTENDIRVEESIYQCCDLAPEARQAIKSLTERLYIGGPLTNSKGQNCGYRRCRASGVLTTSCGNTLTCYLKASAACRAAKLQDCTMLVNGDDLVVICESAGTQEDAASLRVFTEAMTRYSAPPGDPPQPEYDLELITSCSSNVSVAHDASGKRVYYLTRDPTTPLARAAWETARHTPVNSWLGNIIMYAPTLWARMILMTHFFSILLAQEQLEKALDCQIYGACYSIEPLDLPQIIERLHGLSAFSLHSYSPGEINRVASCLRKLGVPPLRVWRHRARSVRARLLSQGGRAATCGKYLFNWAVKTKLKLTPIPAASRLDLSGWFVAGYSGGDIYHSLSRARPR
In short: as §1

[5] = system: HCV 1a-H77 subgenomic replicon; test: microbe, parasite or virus in culture; type: cell-based, HCV genotype 1a; details: Hepatitis C virus, stable replicon
[6] = system: HCV 1b-BB7 subgenomic replicon; test: microbe, parasite or virus in culture; type: cell-based, HCV genotype 1b; details: Hepatitis C virus, stable replicon
[7] = system: chimeric replicon with 2a-J6CF-derived NS5B; test: microbe, parasite or virus in culture; type: cell-based, HCV genotype 2a; details: Hepatitis C virus, read-out: 2a chimera 5% FBS EC50
[8] = system: chimeric replicon with genotype 2b NS5B; test: microbe, parasite or virus in culture; type: cell-based, HCV genotype 2b; details: Hepatitis C virus, read-out: 2b chimera 5% FBS EC50
[9] = system: chimeric replicon with genotype 3a NS5B; test: microbe, parasite or virus in culture; type: cell-based, HCV genotype 3a; details: Hepatitis C virus, read-out: 3a chimera 5% FBS EC50
[10] = system: chimeric replicon with genotype 4a NS5B; test: microbe, parasite or virus in culture; type: cell-based, HCV genotype 4a; details: Hepatitis C virus, read-out: 4a chimera 5% FBS EC50
[11] = 5% FBS, absence of human plasma, read-out: Stable Replicon 1a H77 5% FBS EC50
[12] = strain 1a H77, 5% FBS + 40% human plasma, read-out: 1a H77 5% FBS + 40% Human Plasma EC50
[13] = strain 1a H77, 5% FBS, no human plasma, read-out: 1a H77 5% FBS EC50
[14] = strain 1a H77, 5% FBS, read-out: 1a H77 5% FBS EC50
[15] = strain 1b BB7, 5% FBS + 40% human plasma, read-out: 1b BB7 5% FBS + 40% Human Plasma EC50
[16] = strain 1b BB7, 5% FBS, no human plasma, read-out: 1b BB7 5% FBS EC50
[17] = strain 1b BB7, 5% FBS, read-out: 1b BB7 5% FBS EC50

T1 sequence (P27958 2421-2990): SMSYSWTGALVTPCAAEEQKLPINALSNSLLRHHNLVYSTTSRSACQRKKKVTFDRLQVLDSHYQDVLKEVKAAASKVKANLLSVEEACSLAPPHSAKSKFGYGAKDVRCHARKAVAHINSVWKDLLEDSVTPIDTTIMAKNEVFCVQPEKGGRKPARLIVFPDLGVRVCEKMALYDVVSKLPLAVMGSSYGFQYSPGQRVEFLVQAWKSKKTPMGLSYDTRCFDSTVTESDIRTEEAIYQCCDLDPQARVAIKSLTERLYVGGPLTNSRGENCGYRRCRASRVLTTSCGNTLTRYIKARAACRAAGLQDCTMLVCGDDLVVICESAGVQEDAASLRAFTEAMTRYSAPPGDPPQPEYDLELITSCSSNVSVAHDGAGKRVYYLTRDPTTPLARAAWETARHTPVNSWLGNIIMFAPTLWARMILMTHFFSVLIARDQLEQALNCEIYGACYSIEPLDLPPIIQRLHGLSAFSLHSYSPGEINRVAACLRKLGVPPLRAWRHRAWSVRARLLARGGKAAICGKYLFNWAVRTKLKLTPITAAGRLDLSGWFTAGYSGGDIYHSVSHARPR

Row | SMILES | IC50 [1] | IC50 [2] | C316Y/1a Fold Resistance [3] | IC50 [4] | EC50 [5, 11] | EC50 [5, 12] | EC50 [5, 13] | EC50 [5, 14] | EC50 [6, 15] | EC50 [6, 16] | EC50 [6, 17] | EC50 [7] | EC50 [8] | EC50 [9] | EC50 [10]
1 | CC(=O)CCCCN(c1cc2oc(-c3ccc(F)cc3)c(-c3ncc[nH]3)c2cc1C1CC1)S(C)(=O)=O [Example 77, N-[5-cyclopropyl-2-(4-fluorophenyl)-3-(1H-imidazol-2-yl)-1-benzofuran-6-yl]-N-(5-oxohexyl)methanesulfonamide] | 5 nM | 49 nM | 10 fold | 10 nM | 6 nM | 66 nM | 6 nM | 6 nM | 47 nM | 5.7 nM | 5.7 nM | 32.5 nM | 26.8 nM | 4.9 nM | 42.7 nM
2 | CS(=O)(=O)N(CCCc1noc(=O)[nH]1)c1cc2oc(-c3ccc(F)cc3)c(-c3ncc[nH]3)c2cc1C1CC1 [Example 175, N-[5-cyclopropyl-2-(4-fluorophenyl)-3-(1H-imidazol-2-yl)-1-benzofuran-6-yl]-N-[3-(5-oxo-4,5-dihydro-1,2,4-oxadiazol-3-yl)propyl]methanesulfonamide] | 6 nM | 43 nM | 7 fold | 25 nM | 79 nM | 1180 nM | 79 nM | 79 nM | 570 nM | 62 nM | 62 nM | 660 nM | 723 nM | 62 nM | 407 nM
3 | C[S+]([O-])c1ccc(-c2ncc(CN(c3ccc4c(-c5ncc[nH]5)c(-c5ccccc5)oc4c3)S(C)(=O)=O)s2)cc1 (stereo not drawn) [Example 24, N-[3-(1H-imidazol-2-yl)-2-phenyl-1-benzofuran-6-yl]-N-({2-[4-(methylsulfinyl)phenyl]-1,3-thiazol-5-yl}methyl)methanesulfonamide] | 6.9 nM | 36 nM | 5 fold | 18 nM | 157 nM | 10000 nM | 157 nM | 157 nM | 3850 nM | 12.4 nM | 12.4 nM | 206 nM | 193 nM | 5.4 nM | 362 nM
4 | CS(=O)(=O)N(CCCF)c1cc2oc(-c3ccc(F)cc3)c(-c3ncc[nH]3)c2cc1C1CC1 [Example 85, N-[5-cyclopropyl-2-(4-fluorophenyl)-3-(1H-imidazol-2-yl)-1-benzofuran-6-yl]-N-(3-fluoropropyl)methanesulfonamide] | 4.5 nM | 88 nM | 20 fold | 18 nM | 21.8 nM | 162 nM | 21.8 nM | 21.8 nM | 95 nM | 9.8 nM | 9.8 nM | 66.2 nM | 131 nM | 6.4 nM | 73.8 nM
5 | CSCCN(c1cc2oc(-c3ccc(F)cc3)c(-c3ncc[nH]3)c2cc1C1CC1)S(C)(=O)=O [Example 74, N-[5-cyclopropyl-2-(4-fluorophenyl)-3-(1H-imidazol-2-yl)-1-benzofuran-6-yl]-N-[2-(methylthio)ethyl]methanesulfonamide] | 3 nM | 107 nM | 36 fold | 13 nM | 13.6 nM | 254 nM | 13.6 nM | 13.6 nM | 127 nM | 6.5 nM | 6.4 nM | 64 nM | 57.8 nM | 4.5 nM | 86.5 nM
6 | CCS(=O)(=O)CCCN(c1cc2oc(-c3ccc(F)cc3)c(C3=NOCCN3)c2cc1C1CC1)S(C)(=O)=O [Example 143, N-[5-cyclopropyl-3-(5,6-dihydro-4H-1,2,4-oxadiazin-3-yl)-2-(4-fluorophenyl)-1-benzofuran-6-yl]-N-[3-(ethylsulfonyl)propyl]methanesulfonamide] | 9 nM | 75 nM | 8 fold | 42 nM | 21.8 nM | 125 nM | 21.8 nM | 21.8 nM | 108 nM | 12 nM | 12 nM | 131 nM | 137 nM | 35 nM | 150 nM
7 | CS(=O)(=O)N(Cc1cnc(-c2cccc(CO)c2)s1)c1ccc2c(-c3ncc[nH]3)c(-c3ccccc3)oc2c1 [Example 28, N-({2-[3-(hydroxymethyl)phenyl]-1,3-thiazol-5-yl}methyl)-N-[3-(1H-imidazol-2-yl)-2-phenyl-1-benzofuran-6-yl]methanesulfonamide] | 5.9 nM | 28 nM | 5 fold | 12 nM | 405 nM | 10000 nM | 405 nM | 405 nM | 10000 nM | 24.1 nM | 24.1 nM | 234 nM | 561 nM | 14.3 nM | 378 nM
8 | Cn1ccc2cc(-c3ncc(CN(c4ccc5c(-c6ncc[nH]6)c(-c6ccccc6)oc5c4)S(C)(=O)=O)s3)ccc21 [Example 25, N-[3-(1H-imidazol-2-yl)-2-phenyl-1-benzofuran-6-yl]-N-{[2-(1-methyl-1H-indol-5-yl)-1,3-thiazol-5-yl]methyl}methanesulfonamide] | 6.3 nM | 43 nM | 7 fold | 15 nM | 266 nM | 10000 nM | 266 nM | 266 nM | 10000 nM | 8.2 nM | 8.2 nM | 108 nM | 382 nM | 10.7 nM | 452 nM
9 | CS(=O)(=O)N(CCCOc1ccccc1)c1cc2oc(-c3ccc(F)cc3)c(-c3ncc[nH]3)c2cc1C1CC1 [Example 37, N-[5-cyclopropyl-2-(4-fluorophenyl)-3-(1H-imidazol-2-yl)-1-benzofuran-6-yl]-N-(3-phenoxypropyl)methanesulfonamide] | 5.5 nM | 144 nM | 26 fold | 24 nM | 348 nM | 1390 nM | 348 nM | 348 nM | 529 nM | 145 nM | 145 nM | 522 nM | 751 nM | 166 nM | 598 nM
10 | CCN(CC)CCCN(c1cc2oc(-c3ccc(F)cc3)c(C3=NOCCN3)c2cc1C1CC1)S(C)(=O)=O [Example 131, N-[5-cyclopropyl-3-(5,6-dihydro-4H-1,2,4-oxadiazin-3-yl)-2-(4-fluorophenyl)-1-benzofuran-6-yl]-N-[3-(diethylamino)propyl]methanesulfonamide] | 30.2 nM | 876 nM | 29 fold | 171 nM | 122 nM | 350 nM | 122 nM | 122 nM | 102 nM | 26 nM | 26 nM | 380 nM | 446 nM | 131 nM | 782 nM
11 | CS(=O)(=O)N(Cc1cnc(Br)s1)c1cc2oc(-c3ccc(F)cc3)c(-c3ncc[nH]3)c2cc1C1CC1 [Example 67, N-[(2-bromo-1,3-thiazol-5-yl)methyl]-N-[5-cyclopropyl-2-(4-fluorophenyl)-3-(1H-imidazol-2-yl)-1-benzofuran-6-yl]methanesulfonamide] | 3.5 nM | 234 nM | 68 fold | 12 nM | 54.3 nM | 1010 nM | 54.3 nM | 54.3 nM | 256 nM | 13.9 nM | 13.9 nM | 87.3 nM | 77.2 nM | 7.9 nM | 232 nM
